Data on six cell lines can be found in the supplement of paper PMC10307832.

Holding throughout (assay): relative viability (nuclei count vs DMSO), 5 days (fraction); higher = more cells survive
Compound in the experiment “BX 795 + Trametinib”: O=C(NCCCNc1nc(Nc2cccc(NC(=O)N3CCCC3)c2)ncc1I)c1cccs1 [BX 795] + CC(=O)Nc1cccc(-n2c(=O)n(C3CC3)c(=O)c3c(Nc4ccc(I)cc4F)n(C)c(=O)c(C)c32)c1 [Trametinib] (partner 0.02 µM)
The essentials:
(§1)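 The day after seeding in 1536-well plates, lung cancer cell lines were treated by pin tool with a single drug, or with a fixed anchor-drug dose together with five library-drug doses (not always all listed) in √10 steps. After 5 days, a combined fix-and-stain solution (final 0.05% Triton X-100, 1% formaldehyde, 1 ug/ml Hoechst) was added. Nuclei counted on 4× images gave relative viability as treated counts over vehicle counts, reported as the median of duplicate plates.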

Compound in the experiment “BX 795 + Luminespib”: O=C(NCCCNc1nc(Nc2cccc(NC(=O)N3CCCC3)c2)ncc1I)c1cccs1 [BX 795] + CCNC(=O)c1noc(-c2cc(C(C)C)c(O)cc2O)c1-c1ccc(CN2CCOCC2)cc1 [Luminespib] (partner 0.01 µM)
The essentials: as §1

Compound in the experiment “BX 795 + OSI-027”: O=C(NCCCNc1nc(Nc2cccc(NC(=O)N3CCCC3)c2)ncc1I)c1cccs1 [BX 795] + COc1cccc2cc(-c3nc([C@H]4CC[C@H](C(=O)O)CC4)n4ncnc(N)c34)[nH]c12 [OSI-027] (partner 0.5 µM)
The method, boiled down:
as §1

Compound in the experiment “BX 795 + Dasatinib”: O=C(NCCCNc1nc(Nc2cccc(NC(=O)N3CCCC3)c2)ncc1I)c1cccs1 [BX 795] + Cc1nc(Nc2ncc(C(=O)Nc3c(C)cccc3Cl)s2)cc(N2CCN(CCO)CC2)n1 [Dasatinib] (partner 0.075 µM)
The essentials:
as §1

Compound in the experiment “BX 795 + Phenformin”: O=C(NCCCNc1nc(Nc2cccc(NC(=O)N3CCCC3)c2)ncc1I)c1cccs1 [BX 795] + N=C(N)NC(=N)NCCc1ccccc1 [Phenformin] (partner 250 µM)
The method, boiled down: as §1

Regarding NCI-H2228, the relative viability with BX 795 + Trametinib (first compound 0.04 µM) was 0.689; with BX 795 + Trametinib (first compound 0.1265 µM) it was 0.713; in the experiment with BX 795 + Trametinib (first compound 0.4 µM) it was 0.389; with BX 795 + Trametinib (first compound 1.265 µM), 0.349; in the experiment with BX 795 + Luminespib (first compound 0.04 µM), 0.104; in the experiment with BX 795 + Luminespib (first compound 0.1265 µM), 0.127. The relative viability was 0.122 in the experiment with BX 795 + Luminespib (first compound 0.4 µM); 0.169 with BX 795 + Luminespib (first compound 1.265 µM); 0.483 in the experiment with BX 795 + OSI-027 (first compound 0.04 µM); 0.641 with BX 795 + OSI-027 (first compound 0.1265 µM); 0.471 with BX 795 + OSI-027 (first compound 0.4 µM); 0.265 in the experiment with BX 795 + OSI-027 (first compound 1.265 µM). In addition, the relative viability with BX 795 + Dasatinib (first compound 0.04 µM) came to 0.568; with BX 795 + Dasatinib (first compound 0.1265 µM), 0.594; with BX 795 + Dasatinib (first compound 0.4 µM), 0.388; with BX 795 + Dasatinib (first compound 1.265 µM), 0.32; in the experiment with BX 795 + Phenformin (first compound 0.04 µM) it was 0.325; with BX 795 + Phenformin (first compound 0.1265 µM), 0.469. Moreover, the relative viability with BX 795 + Phenformin (first compound 0.4 µM) was found to be 0.272; in the experiment with BX 795 + Phenformin (first compound 1.265 µM) it was 0.15.

NCI-H2342: the relative viability in the experiment with BX 795 + Trametinib (first compound 0.04 µM) was 0.796; with BX 795 + Trametinib (first compound 0.1265 µM), 0.774; with BX 795 + Trametinib (first compound 0.4 µM), 0.892; with BX 795 + Trametinib (first compound 1.265 µM), 0.766; with BX 795 + Luminespib (first compound 0.04 µM), 0.793; in the experiment with BX 795 + Luminespib (first compound 0.1265 µM) it was 0.588. The relative viability in the experiment with BX 795 + Luminespib (first compound 0.4 µM) worked out at 0.79; with BX 795 + Luminespib (first compound 1.265 µM), 0.743; in the experiment with BX 795 + OSI-027 (first compound 0.04 µM), 0.66; with BX 795 + OSI-027 (first compound 0.1265 µM), 0.569; with BX 795 + OSI-027 (first compound 0.4 µM), 0.591; with BX 795 + OSI-027 (first compound 1.265 µM), 0.637. Further, the relative viability with BX 795 + Dasatinib (first compound 0.04 µM) came out at 0.307; in the experiment with BX 795 + Dasatinib (first compound 0.1265 µM), 0.319; with BX 795 + Dasatinib (first compound 0.4 µM) it was 0.287; with BX 795 + Dasatinib (first compound 1.265 µM), 0.312; with BX 795 + Phenformin (first compound 0.04 µM), 0.643; with BX 795 + Phenformin (first compound 0.1265 µM), 0.515. Further, the relative viability turned out to be 0.538 with BX 795 + Phenformin (first compound 0.4 µM) and 0.544 in the experiment with BX 795 + Phenformin (first compound 1.265 µM).

As for NCI-H2347, the relative viability is 0.282 with BX 795 + Trametinib (first compound 0.04 µM); 0.239 with BX 795 + Trametinib (first compound 0.1265 µM); 0.29 in the experiment with BX 795 + Trametinib (first compound 0.4 µM); 0.275 with BX 795 + Trametinib (first compound 1.265 µM); 0.534 with BX 795 + Luminespib (first compound 0.04 µM); 0.563 with BX 795 + Luminespib (first compound 0.1265 µM). The relative viability is 0.751 in the experiment with BX 795 + Luminespib (first compound 0.4 µM); 0.607 with BX 795 + Luminespib (first compound 1.265 µM); 0.503 with BX 795 + OSI-027 (first compound 0.04 µM); 0.541 with BX 795 + OSI-027 (first compound 0.1265 µM); 0.616 in the experiment with BX 795 + OSI-027 (first compound 0.4 µM); 0.352 with BX 795 + OSI-027 (first compound 1.265 µM). Moreover, the relative viability with BX 795 + Dasatinib (first compound 0.04 µM) turned out to be 0.385; in the experiment with BX 795 + Dasatinib (first compound 0.1265 µM), 0.325; in the experiment with BX 795 + Dasatinib (first compound 0.4 µM) it was 0.293; in the experiment with BX 795 + Dasatinib (first compound 1.265 µM) it was 0.283; with BX 795 + Phenformin (first compound 0.04 µM) it was 0.475; in the experiment with BX 795 + Phenformin (first compound 0.1265 µM), 0.466. Also, the results for the relative viability in the experiment with BX 795 + Phenformin (first compound 0.4 µM) and in the experiment with BX 795 + Phenformin (first compound 1.265 µM) were 0.555 and 0.391, respectively.

Consider NCI-H2405, for which the relative viability in the experiment with BX 795 + Trametinib (first compound 0.04 µM) worked out at 0.557; with BX 795 + Trametinib (first compound 0.1265 µM), 0.556; with BX 795 + Trametinib (first compound 0.4 µM), 0.44; with BX 795 + Trametinib (first compound 1.265 µM) it was 0.534; with BX 795 + Luminespib (first compound 0.04 µM) it was 0.718; with BX 795 + Luminespib (first compound 0.1265 µM) it was 0.714. For the same cell line, the relative viability was 0.573 with BX 795 + Luminespib (first compound 0.4 µM); 0.585 in the experiment with BX 795 + Luminespib (first compound 1.265 µM); 0.75 with BX 795 + OSI-027 (first compound 0.04 µM); 0.65 with BX 795 + OSI-027 (first compound 0.1265 µM); 0.66 with BX 795 + OSI-027 (first compound 0.4 µM); 0.559 with BX 795 + OSI-027 (first compound 1.265 µM). Moreover, the relative viability was found to be 0.185 with BX 795 + Dasatinib (first compound 0.04 µM); 0.193 with BX 795 + Dasatinib (first compound 0.1265 µM); 0.191 with BX 795 + Dasatinib (first compound 0.4 µM); 0.187 in the experiment with BX 795 + Dasatinib (first compound 1.265 µM); 0.438 with BX 795 + Phenformin (first compound 0.04 µM); 0.355 with BX 795 + Phenformin (first compound 0.1265 µM). In addition, the relative viability in the experiment with BX 795 + Phenformin (first compound 0.4 µM) came to 0.33; with BX 795 + Phenformin (first compound 1.265 µM), 0.262.

Regarding NCI-H3122, the relative viability with BX 795 + Trametinib (first compound 0.04 µM) stood at 0.216; with BX 795 + Trametinib (first compound 0.1265 µM) it was 0.312; with BX 795 + Trametinib (first compound 0.4 µM), 0.248; with BX 795 + Trametinib (first compound 1.265 µM), 0.26; with BX 795 + Luminespib (first compound 0.04 µM), 0.0821; in the experiment with BX 795 + Luminespib (first compound 0.1265 µM), 0.114. Further, the relative viability in the experiment with BX 795 + Luminespib (first compound 0.4 µM) worked out at 0.0793; with BX 795 + Luminespib (first compound 1.265 µM), 0.0891; with BX 795 + OSI-027 (first compound 0.04 µM), 0.948; in the experiment with BX 795 + OSI-027 (first compound 0.1265 µM), 1.06; with BX 795 + OSI-027 (first compound 0.4 µM), 0.947; with BX 795 + OSI-027 (first compound 1.265 µM), 0.733. Further, the relative viability was determined as 0.791 with BX 795 + Dasatinib (first compound 0.04 µM); 1 with BX 795 + Dasatinib (first compound 0.1265 µM); 0.8 with BX 795 + Dasatinib (first compound 0.4 µM); 0.852 with BX 795 + Dasatinib (first compound 1.265 µM); 0.409 with BX 795 + Phenformin (first compound 0.04 µM); 0.38 with BX 795 + Phenformin (first compound 0.1265 µM). Moreover, the relative viability was determined as 0.381 with BX 795 + Phenformin (first compound 0.4 µM) and 0.348 with BX 795 + Phenformin (first compound 1.265 µM).

Turning to PC-3 [JPC-3], the relative viability in the experiment with BX 795 + Trametinib (first compound 0.04 µM) came out at 0.723; with BX 795 + Trametinib (first compound 0.4 µM), 0.631; with BX 795 + Trametinib (first compound 1.265 µM) it was 0.729; with BX 795 + Luminespib (first compound 0.04 µM), 0.67; in the experiment with BX 795 + Luminespib (first compound 0.1265 µM) it was 0.628; in the experiment with BX 795 + Luminespib (first compound 0.4 µM), 0.774. Further, the relative viability came to 0.698 in the experiment with BX 795 + Luminespib (first compound 1.265 µM); 0.813 in the experiment with BX 795 + OSI-027 (first compound 0.04 µM); 0.81 with BX 795 + OSI-027 (first compound 0.1265 µM); 0.829 with BX 795 + OSI-027 (first compound 0.4 µM); 0.72 in the experiment with BX 795 + OSI-027 (first compound 1.265 µM); 1.02 with BX 795 + Dasatinib (first compound 0.04 µM). Besides, the relative viability with BX 795 + Dasatinib (first compound 0.1265 µM) came out at 1.04; in the experiment with BX 795 + Dasatinib (first compound 0.4 µM), 0.979; with BX 795 + Dasatinib (first compound 1.265 µM) it was 0.975; with BX 795 + Phenformin (first compound 0.04 µM) it was 0.484; with BX 795 + Phenformin (first compound 0.1265 µM) it was 0.439; in the experiment with BX 795 + Phenformin (first compound 0.4 µM) it was 0.492. For the same cell line, in the experiment with BX 795 + Phenformin (first compound 1.265 µM), the relative viability turned out to be 0.483.
